Assay results taken from patent EP0906335B1, “EBV TYPE B CTL EPITOPES” (THE COUNCIL OF THE QUEENSLAND INSTITUTE OF MEDICAL RESEARCH, priority 1996, dated 2008).

What was measured:
HLA = conditions: Table 4, from the cited reference; cited from earlier work
autologous PHA blasts = assay: CTL assay of type B specific culture B5 against overlapping EBNA-6B peptides (epitope mapping); type: cell-based; conditions: peptides preincubated with autologous PHA blasts; Fig. 3a, 3b
Protocol: Assessment of peptide specific activity.
The type B specific culture B5 recognised the peptide corresponding to EBNA-6B residues 210-229 (peptide 12 of the EBNA-6B set) when assayed against individual 20-mer overlapping peptides preincubated with autologous PHA blasts (Fig. 3a). […] The corresponding peptide from the type A overlapping sequence was not recognised by this culture, thus confirming the type B specificity of these T cells.

autologous PHA-blasts = assay: CTL assay of culture A3 against overlapping EBNA-6B peptides (epitope mapping); conditions: peptides on autologous PHA-blasts; Fig. 4a, 4b

Row | Substance | HLA Restriction (HLA) | other results
1 | CLGGLLTMV | HLA A2 | 
2 | DEPASTEPVHDQLL | HLA A11 | 
3 | DTPLIPLTIF | HLA B51/A2 | 
4 | EENLLDFVRF | HLA B44 | 
5 | FLRGRAYGL | HLA B8 | 
6 | KEHVIQNAF | HLA B44 | 
7 | LPGPQVTAVLLHEES | HLA A11 | 
8 | NPTQAPVIQLVHAVY | HLA A11 | 
9 | QPRAPIRPI | HLA B7 | 
10 | RLRAEAGVK | HLA A3 | 
11 | RPPIFIRRL | HLA B7 | 
12 | RRRWRRLTV | HLA B27 | 
13 | RYSIFFDY | HLA 24 | 
14 | SVRDRLARL | HLA A2 | 
15 | TSLYNLRRGTALA | HLA DR1 | 
16 | TVFYNIPPNIPL | HLA DQ2 | 
17 | VEITPYKPTW | HLA B44 | 
18 | VSFIEFVGW | HLA B57 | 
19 | peptide 12: 20-mer overlapping peptide corresponding to EBNA-6B residues 210-229 |  | recognition by type B specific culture B5 (autologous PHA blasts): recognised
20 | peptide 19: 20-mer overlapping peptide of EBNA-6B, residues 280-299 |  | recognition by culture A3 (autologous PHA-blasts): reactive
